The target in this assay is T1, GPR73 (prokineticin 1 receptor) (Homo sapiens, UniProt Q8TCW9).
T1 construct: expressed in transfected cells; host or cells: HEK 293
Nature of the assay: PK1 functional assay: Ca2+ mobilization screening for PK1 antagonists on the FLIPR. Format: cell-based. As to conditions: HEK 293 GPR73 cells, multiple values = multiple testing; for inhibition at 10 µM: HEK293, 10 μM compound, read-out: Ca^2+ Mobilization % Inh @ 10 μM; for IC50: PK1 ligand preparation at its EC50, read-out: Ca^2+ Mobilization IC50; for Ca^2+ Mobilization % Inh @ 10 μM: 10 μM compound. As for the experimental part:
At a time of 24 h prior to running the assay, in cell culture media (DMEM containing high Glucose and L-glutamine, 10% FBS, 1% Pen/Streptomycin, 1% Sodium Pyruvate, 20 mM HEPES, Zeocin 200 mg/L), 100 μL of 1.3*10^6/ml HEK 293 GPR73 (prokineticin 1 receptor) expressing cells were plated in a 96 well poly-d-lysine coated plate (Costar), and incubated at 37 C and 5% CO2. On the day in which the assay was run, the media was removed and 200 μL of 5× Calcium Plus Dye (Molecular Devices) which was previously resuspended with 200 mL of assay buffer [HBSS w/Ca^2+ and Mg^2+ w/o phenol red, 20 mM HEPES, 0.1% BSA, 10 mL probenecid (710 mg probenecid in 5 mL of 1N NaOH, to which was then added 5 mL HBSS containing 20 mM HEPES)] was added to each well of the 96-well plate. The plate was incubated at 37 C and 5% CO2 for 30 min in dark. The plate was removed and allowed to reach RT for 15 min in the dark. The assay was then run on the FLIPR. In Brief: base line read for 1 min, compound added (25 μL) and incubated for 4 min, 15 seconds, PK1 ligand preparation added (25 μL) for a final concentration of a previously determined EC50 and fluorescence was counted for 1 min, 45 seconds. Baseline is described as the amount of relative fluorescence read when buffer alone is added to cells. Baseline was subtracted from all wells. Percent of control was calculated as follows:
(Baseline subtracted well value is divided by baseline subtracted max value)*100. Percent inhibition is 100 minus the percent of control value.
The IC50 is defined as the amount of a given compound required to inhibit 50% of the maximum signal that is generated by the concentration of PK1 preparation used in our assay. IC50 values were calculated using GraphPad Prism.
For orientation: Calcium flux is commonly read through the fluorescence of an indicator in the cells.

These results are taken from patent US20080287445A1, “Prokineticin 2 receptor antagonists” (priority 2005, published 2008).

A word on the IC50: it is the midpoint of a concentration-inhibition curve.

Where “and” joins values, the source holds several entries; their conditions need not be identical. Identical values can stand only once.

T1 sequence (Q8TCW9 whole entry, species assumed): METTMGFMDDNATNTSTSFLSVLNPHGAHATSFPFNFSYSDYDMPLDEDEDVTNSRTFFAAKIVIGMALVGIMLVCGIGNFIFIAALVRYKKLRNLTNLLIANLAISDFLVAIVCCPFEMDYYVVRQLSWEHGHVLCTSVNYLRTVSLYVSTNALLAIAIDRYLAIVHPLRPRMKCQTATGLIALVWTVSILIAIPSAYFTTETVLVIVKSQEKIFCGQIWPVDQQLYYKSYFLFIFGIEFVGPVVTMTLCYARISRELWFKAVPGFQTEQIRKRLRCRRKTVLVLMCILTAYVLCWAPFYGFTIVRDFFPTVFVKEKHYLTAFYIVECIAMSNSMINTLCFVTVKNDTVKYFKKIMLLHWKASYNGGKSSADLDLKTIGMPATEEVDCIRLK

As for `COc1ccc(Cn2c(NCc3cccnc3N)nc(=O)n(Cc3ccccc3)c2=O)cc1` [Cpd 43], the inhibition at 10 µM was found to be 78% and the IC50 worked out at 801 nM.
Regarding `COc1ccc(Cn2c(NCc3cccnc3N)nc(=O)n(Cc3ccc(C#N)cc3)c2=O)cc1` [Cpd 44], the inhibition at 10 µM amounted to 66% and the IC50 amounted to 2020 nM.
Take `COc1ccc(Cn2c(NCc3cccnc3N)nc(=O)n(Cc3ccc(OC(F)(F)F)cc3)c2=O)cc1` [Cpd 45]: the inhibition at 10 µM was 40% and the IC50 is above 10000 nM.
In the case of `CCOc1ccc(Cn2c(=O)nc(NCc3cccnc3N)n(Cc3ccc(OC)cc3)c2=O)cc1` [Cpd 46], the inhibition at 10 µM was found to be 80% and the concentration for half-maximal inhibition (IC50) was determined as 522 nM.
For `COc1ccc(Cn2c(NCc3cccnc3N)nc(=O)n(Cc3ccc([N+](=O)[O-])cc3)c2=O)cc1` [Cpd 47], in that order: 80% and 826 nM.
On to `C=CCC(c1ccc(OC)cc1)n1c(=O)nc(NCc2cccnc2N)n(Cc2ccc(OC)cc2)c1=O` (stereo not drawn) [Cpd 48], for which the inhibition at 10 µM was determined as 75% and the IC50 was determined as 956 nM.
In the same order, the values of `COc1ccc(Cn2c(NCc3cccnc3N)nc(=O)n(Cc3ccc(C(F)(F)F)cc3)c2=O)cc1` [Cpd 49] are 64% and 3170 nM.
As to `COCCNc1ncccc1CNc1nc(=O)n(Cc2ccc(OC)cc2)c(=O)n1Cc1ccc(OC)cc1` [Cpd 50], the “Ca^2+ Mobilization % Inh @ 10 μM” value amounted to 100%; the inhibition at 10 µM was 91%; the IC50 was 24 nM and 72 nM.
Regarding `COc1ccc(Cn2c(NCc3cccnc3NCCN(C)C)nc(=O)n(Cc3ccc(OC)cc3)c2=O)cc1` [Cpd 51], the inhibition at 10 µM is 93% and the IC50 came to 207 nM.
`COc1ccc(Cn2c(=O)nc(NCc3cccnc3N)n(Cc3ccc(C(N)=O)cc3)c2=O)cc1` [Cpd 52]: the inhibition at 10 µM came out at 94% and the half-maximal inhibitory concentration (IC50) worked out at 973 nM.
With `COc1ccc(Cn2c(NCc3ccc[n+]([O-])c3)nc(=O)n(Cc3ccc(OC)cc3)c2=O)cc1` [Cpd 53], the inhibition at 10 µM is 45% and the IC50 was above 10000 nM.
As to `COc1ccc(Cn2c(NCc3cccnc3N)nc(=O)n(Cc3ccc(O)cc3)c2=O)cc1` [Cpd 54, 6-[(2-Amino-pyridin-3-ylmethyl)-amino]-3-(4-hydroxy-benzyl)-1-(4-methoxy-benzyl)-1H-[1,3,5]triazine-2,4-dione], the “Ca^2+ Mobilization % Inh @ 10 μM” value is 42% and 64%; the IC50 was 3470 nM and > 10000 nM.
As for `COc1ccc(Cn2c(NCc3cccnc3N)nc(=O)n(Cc3cccc(F)c3)c2=O)cc1` [Cpd 55], the inhibition at 10 µM was found to be 44% and the IC50 is above 10000 nM.
For `COC(=O)c1ccc(Cn2c(=O)nc(NCc3cccnc3N)n(Cc3ccc(OC)cc3)c2=O)cc1` [Cpd 56], in that order: 47% and above 10000 nM.
Regarding `COc1ccc(Cn2c(NCc3cc(-c4ccccc4)cnc3N)nc(=O)n(Cc3ccc(OC)cc3)c2=O)cc1` [Cpd 57], the inhibition at 10 µM turned out to be 59% and the 50% inhibitory concentration (IC50) was 4770 nM.
For `COc1ccc(Cn2c(NCc3c(OC)ccnc3N)nc(=O)n(Cc3ccc(OC)cc3)c2=O)cc1` [Cpd 58], in that order: 95% and 89 nM.
Take `COc1ccc(Cn2c(NCc3ccc(C)nc3)nc(=O)n(Cc3ccc(OC)cc3)c2=O)cc1` [Cpd 59]: the inhibition at 10 µM was 94% and the IC50 was 178 nM.
In the same order, the values of `COc1ccc(Cn2c(NCc3cnc(C)cc3C)nc(=O)n(Cc3ccc(F)cc3)c2=O)cc1` [Cpd 60] are 88% and 350 nM.
For the compound `COc1ccc(Cn2c(NCc3cnc(C)cc3C)cc(=O)n(Cc3ccc(OC)cc3)c2=O)cc1` [Cpd 61], the “Ca^2+ Mobilization % Inh @ 10 μM” value came to 101% and the inhibition at 10 µM turned out to be 87%.
As for `COc1ccc(Cn2c(NCc3cc(C)ccn3)nc(=O)n(Cc3ccc(OC)cc3)c2=O)cc1` [Cpd 62], the inhibition at 10 µM is 52% and the IC50 was 2030 nM.
For `CCc1ccc(Cn2c(NCc3cccnc3N)nc(=O)n(Cc3ccc(OC)cc3)c2=O)cc1` [Cpd 63], in that order: 83% and 271 nM.
As for `COc1ccc(Cn2c(NCc3cccc(C(F)(F)F)n3)nc(=O)n(Cc3ccc(OC)cc3)c2=O)cc1` [Cpd 64], the “Ca^2+ Mobilization % Inh @ 10 μM” value is listed as 51%; the inhibition at 10 µM turned out to be 50%; the IC50 was 5260 nM and 8510 nM.
`COc1ccc(Cn2c(NCc3ncccc3C)nc(=O)n(Cc3ccc(OC)cc3)c2=O)cc1` [Cpd 65]: the 50% inhibitory concentration (IC50) was above 10000 nM.
As to `COc1ccc(Cn2c(NCc3cccnc3NCCSC)nc(=O)n(Cc3ccc(OC)cc3)c2=O)cc1` [Cpd 66], the inhibition at 10 µM came out at 92% and the half-inhibitory concentration (IC50) amounted to 401 nM.
As to `COc1ccc(Cn2c(NCc3cccnc3NCCC(C)C)nc(=O)n(Cc3ccc(OC)cc3)c2=O)cc1` [Cpd 67], the inhibition at 10 µM was found to be 55% and the half-inhibitory concentration (IC50) turned out to be 4820 nM.
Consider `COc1ccc(Cn2c(NCc3cccnc3NCC3CCCO3)nc(=O)n(Cc3ccc(OC)cc3)c2=O)cc1` (stereo not drawn) [Cpd 68], for which the inhibition at 10 µM is 95% and the concentration for half-maximal inhibition (IC50) was found to be 217 nM.
Turning to `COc1ccc(Cn2c(NCc3cccnc3NCc3ccco3)nc(=O)n(Cc3ccc(OC)cc3)c2=O)cc1` [Cpd 69], the inhibition at 10 µM is 93% and the concentration for half-maximal inhibition (IC50) worked out at 337 nM.
For `CCN1CCCC1CNc1ncccc1CNc1nc(=O)n(Cc2ccc(OC)cc2)c(=O)n1Cc1ccc(OC)cc1` (stereo not drawn) [Cpd 70], in that order: 94% and 560 nM.
For `COCCNc1ncccc1CNc1nc(=O)n(CCc2ccccc2)c(=O)n1Cc1ccc(OC)cc1` [Cpd 71], the inhibition at 10 µM was 38% and the IC50 is above 10000 nM.
As for `COCCNc1ncccc1CNc1nc(=O)n(CCOc2ccccc2)c(=O)n1Cc1ccc(OC)cc1` [Cpd 72], the inhibition at 10 µM worked out at 81% and the 50% inhibitory concentration (IC50) amounted to 1170 nM.
In the same order, the values of `COCCNc1ncccc1CNc1nc(=O)n(CC2COc3ccccc3O2)c(=O)n1Cc1ccc(OC)cc1` (stereo not drawn) [Cpd 73] are 58% and 5930 nM.
For `COCCNc1ncccc1CNc1nc(=O)n(CCc2ccc([N+](=O)[O-])cc2)c(=O)n1Cc1ccc(OC)cc1` [Cpd 74], the inhibition at 10 µM stood at 54% and the IC50 is 7460 nM.
For `COc1ccc(Cn2c(=O)nc(NCc3cccnc3N)n(Cc3ccc(SC)cc3)c2=O)cc1` [Cpd 75], in that order: 99% and 131 nM.
For `COc1ccc(Cn2c(=O)nc(NCc3cccnc3N)n(Cc3ccncc3)c2=O)cc1` [Cpd 76], in that order: 67% and 1460 nM.
For `COc1ccc(Cn2c(=O)nc(NCc3cccnc3N)n(Cc3cc4ccccc4o3)c2=O)cc1` [Cpd 77], in that order: 91% and 449 nM.
Take `COCCCCCn1c(NCc2cccnc2N)nc(=O)n(Cc2ccc(OC)cc2)c1=O` [Cpd 78, 6-[(2-Amino-pyridin-3-ylmethyl)-amino]-3-(4-methoxy-benzyl)-1-(5-methoxy-pentyl)-1H-[1,3,5]triazine-2,4-dione]: the “Ca^2+ Mobilization % Inh @ 10 μM” value amounted to 95%; the inhibition at 10 µM was determined as 94%; the half-maximal inhibitory concentration (IC50) was 36 nM and 113 nM.
As for `CCCCCCn1c(NCc2cccnc2N)nc(=O)n(Cc2ccc(OC)cc2)c1=O` [Cpd 79], the inhibition at 10 µM came to 85% and the IC50 stood at 679 nM.
In the same order, the values of `COc1ccc(Cn2c(=O)nc(NCc3cccnc3N)n(Cc3cccc(OC)c3)c2=O)cc1` [Cpd 80] are 70% and 2030 nM.
For `COc1ccc(Cn2c(=O)nc(NCc3cccnc3N)n(Cc3cccc(C#N)c3)c2=O)cc1` [Cpd 81], in that order: 36% and above 10000 nM.
Take `COc1ccc(Cn2c(=O)nc(NCc3cccnc3N)n(Cc3cccc([N+](=O)[O-])c3)c2=O)cc1` [Cpd 82]: the inhibition at 10 µM stood at 38% and the IC50 was above 10000 nM.
For `COc1ccc(Cn2c(NCc3cnc(C)cc3C)nc(=O)n(Cc3ccc(OC(F)F)cc3)c2=O)cc1` [Cpd 83], in that order: 82% and 668 nM.
For `COc1ccc(Cn2c(NCc3cccnc3N)nc(=O)n(Cc3ccc(OC(F)F)cc3)c2=O)cc1` [Cpd 84], in that order: 70% and 1220 nM.
`CCc1ccccc1Cn1c(NCc2cccnc2N)nc(=O)n(Cc2ccc(OC)cc2)c1=O` [Cpd 86]: the inhibition at 10 µM amounted to 31% and the 50% inhibitory concentration (IC50) is above 10000 nM.
With `COc1ccc(Cn2c(=O)nc(NCc3cccnc3N)n(Cc3ccccc3OC(F)(F)F)c2=O)cc1` [Cpd 87], the inhibition at 10 µM is 53% and the half-inhibitory concentration (IC50) is above 10000 nM.
